Results taken from US20170050957A1, “4-AMINO-6-(HETEROCYCLIC)PICOLINATES AND 6-AMINO-2-(HETEROCYCLIC)PYRIMIDINE-4-CARBOXYLATES AND THEIR USE AS HERBICIDES” (Dow AgroSciences LLC, priority 2013, published 2017).
Where two headings read alike, the source gives them in different places.

How the values were obtained:
[1] = tested on: Key Broadleaf Weed and Crop Species; test: Post-emergent Test II herbicidal activity (Table 15); format: in vivo; conditions: post-emergence, 336 h, 14 d; for pest or weed control at 35 g/ha: 35 g ai/ha; for pest or weed control at 70 g/ha: 70 g ai/ha; for pest or weed control at 140 g/ha: 140 g ai/ha
Experimental: (§1) Post-emergent Test II: Seeds or nutlets of the desired test plant species were planted in Sun Gro Metro-Mix® 360 planting mixture, which typically has a pH of 6.0 to 6.8 and an organic matter content of about 30 percent, in plastic pots with a surface area of 64 square centimeters. When required to ensure good germination and healthy plants, a fungicide treatment and/or other chemical or physical treatment was applied. The plants were grown for 7-21 d in a greenhouse with an approximate 15 h photoperiod which was maintained at about 23-29° C. during the day and 22-28° C. during the night. Nutrients and water were added on a regular basis and supplemental lighting was provided with overhead metal halide 1000-Watt lamps as necessary. The plants were employed for testing when they reached the first or second true leaf stage.
(§2) A weighed amount, determined by the highest rate to be tested, of each test compound was placed in a 25 mL glass vial and was dissolved in 4 mL of a 97:3 v/v mixture of acetone and DMSO to obtain concentrated stock solutions. […] The concentrated stock solutions obtained were diluted with 20 mL of an aqueous mixture containing acetone, water, isopropyl alcohol, DMSO, Atplus 411F crop oil concentrate, and Triton® X-155 surfactant in a 48.5:39:10:1.5:1.0:0.02 v/v ratio to obtain spray solutions containing the highest application rates. Additional application rates were obtained by serial dilution of 12 mL of the high rate solution into a solution containing 2 mL of 97:3 v/v mixture of acetone and DMSO and 10 mL of an aqueous mixture containing acetone, water, isopropyl alcohol, DMSO, Atplus 411F crop oil concentrate, and Triton X-155 surfactant in a 48.5:39:10:1.5:1.0:0.02 v/v ratio to obtain 1/2×, 1/4×, 1/8× and 1/16× rates of the high rate. Compound requirements are based upon a 12 mL application volume at a rate of 187 liters per hectare (L/ha). Formulated compounds were applied to the plant material with an overhead Mandel track sprayer equipped with 8002E nozzles calibrated to deliver 187 L/ha over an application area of 0.503 square meters at a spray height of 18 inches (43 cm) above the average plant canopy height. Control plants were sprayed in the same manner with the solvent blank.
(§3) The treated plants and control plants were placed in a greenhouse as described above and watered by subirrigation to prevent wash-off of the test compounds. After 14 d, the condition of the test plants as compared with that of the untreated plants was determined visually and scored on a scale of 0 to 100 percent where 0 corresponds to no injury and 100 corresponds to complete kill.

[2] = tested on: Key Grass and Sedge Weeds as well as Grass Crops; test: Post-emergent Test II herbicidal activity (Table 16); format: in vivo; conditions: post-emergence, 336 h; for pest or weed control at 35 g/ha: 35 g ai/ha; for pest or weed control at 70 g/ha: 70 g ai/ha; for pest or weed control at 140 g/ha: 140 g ai/ha
Experimental: as §1, §2, §3

[3] = Abutilon theophrasti, velvetleaf (Abutilon theophrasti), read-out: Visual Growth Reduction (%) 14 Days After Application, ABUTH
[4] = Amaranthus retroflexus, redroot pigweed (Amaranthus retroflexus), read-out: Visual Growth Reduction (%) 14 Days After Application, AMARE
[5] = Brassica napus, oilseed rape, canola (Brassica napus), read-out: Visual Growth Reduction (%) 14 Days After Application, BRSNN
[6] = Chenopodium album, lambsquarters (Chenopodium album), read-out: Visual Growth Reduction (%) 14 Days After Application, CHEAL
[7] = Euphorbia heterophylla, wild poinsettia (Euphorbia heterophylla), read-out: Visual Growth Reduction (%) 14 Days After Application, EPHHL
[8] = Helianthus annuus, sunflower (Helianthus annuus), read-out: Visual Growth Reduction (%) 14 Days After Application, HELAN
[9] = Cyperus esculentus, yellow nutsedge (Cyperus esculentus), 14 d, read-out: Visual Growth Reduction (%) 14 Days After Application, CYPES
[10] = Echinochloa crus-galli, barnyardgrass (Echinochloa crus-galli), 14 d, read-out: Visual Growth Reduction (%) 14 Days After Application, ECHCG
[11] = Oryza sativa, rice (Oryza sativa), 14 d, read-out: Visual Growth Reduction (%) 14 Days After Application, ORYSA
[12] = Setaria faberi, giant foxtail (Setaria faberi), 14 d, read-out: Visual Growth Reduction (%) 14 Days After Application, SETFA
[13] = Triticum aestivum, wheat, spring (Triticum aestivum), 14 d, read-out: Visual Growth Reduction (%) 14 Days After Application, TRZAS
[14] = Zea mays, maize, corn (Zea mays), 14 d, read-out: Visual Growth Reduction (%) 14 Days After Application, ZEAMX

Nc1c(Cl)c(C(=O)O)nc(-c2ccc3cc[nH]c3c2)c1Cl [Compound 1.06]
95 to 100%: pest or weed control at 35 g/ha [1, 4] | pest or weed control at 70 g/ha [1, 6] | pest or weed control at 140 g/ha [1, 6]
85 to 94%: pest or weed control at 70 g/ha [1, 4] | pest or weed control at 70 g/ha [1, 5] | pest or weed control at 140 g/ha [1, 5] | pest or weed control at 35 g/ha [1, 6]
0 to 29%: pest or weed control at 35 g/ha [1, 3] | pest or weed control at 70 g/ha [1, 3] | pest or weed control at 140 g/ha [1, 3] | pest or weed control at 35 g/ha [1, 7] | pest or weed control at 70 g/ha [1, 7] | pest or weed control at 140 g/ha [1, 7] | pest or weed control at 35 g/ha [1, 8] | pest or weed control at 70 g/ha [1, 8] | pest or weed control at 140 g/ha [1, 8]
160 to 164 °C: melting point
75 to 84%: pest or weed control at 140 g/ha [1, 4] | pest or weed control at 35 g/ha [1, 5]

COC(=O)c1nc(-c2ccc3ccn([Si](C(C)C)(C(C)C)C(C)C)c3c2F)c(F)c(N)c1Cl [Compound 1.12, methyl 4-amino-3-chloro-5-fluoro-6-(7-fluoro-1-(triisopropylsilyl)-1H-indol-6-yl)picolinate]
181 to 182 °C: melting point
45 to 59%: pest or weed control at 35 g/ha [2, 13]
85 to 94%: pest or weed control at 140 g/ha [2, 10]
60 to 74%: pest or weed control at 70 g/ha [2, 12]
0 to 29%: pest or weed control at 35 g/ha [2, 9] | pest or weed control at 70 g/ha [2, 9] | pest or weed control at 140 g/ha [2, 9] | pest or weed control at 35 g/ha [2, 10] | pest or weed control at 70 g/ha [2, 10] | pest or weed control at 35 g/ha [2, 11] | pest or weed control at 70 g/ha [2, 11] | pest or weed control at 140 g/ha [2, 11] | pest or weed control at 70 g/ha [2, 13] | pest or weed control at 140 g/ha [2, 13] | pest or weed control at 35 g/ha [2, 14] | pest or weed control at 70 g/ha [2, 14] | pest or weed control at 140 g/ha [2, 14]
75 to 84%: pest or weed control at 35 g/ha [2, 12] | pest or weed control at 140 g/ha [2, 12]

Nc1c(F)c(-c2ccc3ccoc3c2)nc(C(=O)O)c1Cl [Compound 2.08]
30 to 44%: pest or weed control at 70 g/ha [2, 11] | pest or weed control at 140 g/ha [2, 11]
0 to 29%: pest or weed control at 35 g/ha [2, 9] | pest or weed control at 70 g/ha [2, 9] | pest or weed control at 140 g/ha [2, 9] | pest or weed control at 35 g/ha [2, 11] | pest or weed control at 35 g/ha [2, 13] | pest or weed control at 70 g/ha [2, 13] | pest or weed control at 140 g/ha [2, 13]
60 to 74%: pest or weed control at 70 g/ha [2, 12] | pest or weed control at 70 g/ha [2, 14] | pest or weed control at 140 g/ha [2, 14]
45 to 59%: pest or weed control at 35 g/ha [2, 12] | pest or weed control at 35 g/ha [2, 14]
168 to 170 °C: melting point
95 to 100%: pest or weed control at 140 g/ha [2, 10]
85 to 94%: pest or weed control at 35 g/ha [2, 10] | pest or weed control at 70 g/ha [2, 10] | pest or weed control at 140 g/ha [2, 12]

COC(=O)c1nc(-c2ccc3[nH]nnc3c2)cc(N)c1Cl [Compound 9.01]
129 to 133 °C: melting point
95 to 100%: pest or weed control at 140 g/ha ([2]; Cyperus esculentus, yellow nutsedge (Cyperus esculentus), 14 days after application, read-out: Visual Growth Reduction (%) 14 Days After Application CYPES) | pest or weed control at 140 g/ha ([2]; Echinochloa crus-galli, barnyardgrass (Echinochloa crus-galli), 14 days after application, read-out: Visual Growth Reduction (%) 14 Days After Application ECHCG)
0 to 29%: pest or weed control at 140 g/ha ([2]; Oryza sativa, rice (Oryza sativa), 14 days after application, read-out: Visual Growth Reduction (%) 14 Days After Application ORYSA) | pest or weed control at 140 g/ha ([2]; Setaria faberi, giant foxtail (Setaria faberi), 14 days after application, read-out: Visual Growth Reduction (%) 14 Days After Application SETFA) | pest or weed control at 140 g/ha ([2]; Triticum aestivum, wheat, spring (Triticum aestivum), 14 days after application, read-out: Visual Growth Reduction (%) 14 Days After Application TRZAS) | pest or weed control at 140 g/ha ([2]; Zea mays, maize, corn (Zea mays), 14 days after application, read-out: Visual Growth Reduction (%) 14 Days After Application ZEAMX)
